Read-outs that look alike come from different tables or passages of the source.

Usually Ki stands for the dissociation constant of the complex between target and ligand, obtained from inhibition or displacement. The term Emax denotes the maximal effect, on the per cent scale that the assay sets.

Assay [1] has as its target T1, A1 receptor (Mesocricetus auratus, UniProt A0A1U8BVR4).
T1 construct: endogenous in cells; host or cells: DDT1 (DDT1 MF-2) hamster vas deferens smooth muscle cells
T1 sequence (A0A1U8BVR4 1-326): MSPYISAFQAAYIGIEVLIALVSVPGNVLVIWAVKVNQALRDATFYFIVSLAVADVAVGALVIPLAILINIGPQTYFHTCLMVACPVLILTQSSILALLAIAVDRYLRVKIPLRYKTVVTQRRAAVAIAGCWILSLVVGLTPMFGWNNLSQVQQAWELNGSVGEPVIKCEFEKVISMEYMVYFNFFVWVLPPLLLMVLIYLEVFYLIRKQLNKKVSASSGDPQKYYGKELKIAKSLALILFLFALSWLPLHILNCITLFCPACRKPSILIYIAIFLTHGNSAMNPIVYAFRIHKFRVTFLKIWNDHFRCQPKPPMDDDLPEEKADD
Kind of assay: Competitive binding assay, DDT1 cell membranes, [3H]CCPA. The arrangement: species or system hamster. Conditions: [3H]CCPA 2 nM. On the procedure:
Cells were subcultured twice weekly by dispersion in Hank's Balanced Salt Solution (HBSS) without the divalent cations and containing 1 mM EDTA. The cells were then seeded in growth medium at a density of 1.2×10^5 cells per plate and experiments were performed 4 days later at approximately one day preconfluence.
(§1) Attached cells were washed twice with HBSS (2×10 ml), scraped free of the plate with the aid of a rubber policeman in 5 ml of 50 mM Tris-HCI buffer pH 7.4 at 4° C. and the suspension homogenized for 10 s. The suspension was then centrifuged at 27,000×g for 10 min. The pellet was resuspended in homogenization buffer by vortexing and centrifuged as described above. The final pellet was resuspended in 1 vol of 50 mM Tris-HCI buffer pH 7.4 containing 5 mM MgCl2 for A1 AdoR assays. For the [^35S]GTPγS binding assay the final pellet was resuspended in 50 mM Tris-HCI pH 7.4 containing 5 mM MgCl2, 100 mM NaCl and 1 mM dithiothreitol. This membrane suspension was then placed in liquid nitrogen for 10 min, thawed and used for assays.
Competitive Binding Assay Pig striatum were prepared by homogenation in 50 mM Tris buffer (5× volume of tissue mass pH=7.4). After centrifilgation at 19,000 rpm for 25 minutes at 4° C., the supernatant was discarded, and the process was repeated twice. Compositions of this invention were assayed to determine their affinity for the A1 receptor in a pig striatum membrane prep or a DDT, membrane prep. Briefly, 0.2 mg of pig striatal membranes or DDT, cell membranes were treated with adenosine deaminase and 50 mM Tris buffer (pH=7.4) followed by mixing. To the pig membranes was added 2 μL of serially diluted DMSO stock solution of the compounds of this invention at concentrations ranging from 100 microM to 10 nM. The control received 2 microL of DMSO alone, then the antagonist [^3H] 8-cyclopentylxanthine (CPX) for pig striatum or the agonist [^3H] 2-chloro-6-cyclopentyladenosine (CCPA) for DDT, membranes in Tris buffer (50 mnM, pH of 7.4) was added to achieve a final concentration of 2 nM. After incubation at 23 C for 2 h, the solutions were filtered using a membrane harvester using multiple washing of the membranes (3×). The filter disks were counted in scintillation cocktail affording the amount of displacement of triated CPX or by the competitive binding compositions of this invention. In the case of the DDT1 cell membranes, some of the determinations of binding affinity (Ki) were made in the presence of Gpp(NH)p as noted in Table 1 (note: Gpp(NH)p shifts the receptor to a low affinity form). Greater than a 5 point curve was used to generate Ki's and the number of experiments is indicated in the column marked in Table 1 below.

The target of assay [2] is T2, A1 adenosine receptor (Mesocricetus auratus, UniProt A0A1U8BVR4).
T2 construct: endogenous in cells; host or cells: DDT1 (DDT1 MF-2) hamster vas deferens smooth muscle cells
T2 sequence (A0A1U8BVR4 1-326): T1 sequence (A0A1U8BVR4 1-326)
The assay is described as follows: [35S]GTPγS binding assay, A1-agonist stimulated. It is filed as biochemical, hamster. As to conditions: […], agonist stimulated [35S]GTPγS binding, CPA = 100%. As for the experimental part:
as §1, with “for assays. The protein content was determined by the method of Bradford (1976) using bovine serum albumin as standard.” for “for assays.”
A1-agonist stimulated [^35S]GTPγS binding was determined by a modification of the method described by Giersckik et al. (1991) and Lorenzen et al. (1993). […] Nonspecific binding was determined by the addition of 10 μM GTPγS. […] Previous reports have shown that agonist stimulated [^35S]GTPγS binding was dependent on the presence of GDP (Gierschik et al., 1991; Lorenzen et al., 1993; Traynor & Nahorski, 1995). […] In saturation experiments, 0.5 nM [^35S]GTPγS was incubated with 0.5-1000 nM GTPγS. At the end of the incubation, each suspension was filtered and the retained radioactivity determined as described above.
For orientation: GTPγS resists hydrolysis and so accumulates on activated G proteins.

Setting [3] is: DDT1 cell membranes, read-out: Ki-DDT1 cell membrane.
The mark [4] stands for this setting: in presence of Gpp(NH)p (low affinity form), read-out: Ki - DDT1 cell membrane In presence of Gpp (NH)p.

For the compound `CNC(=O)OC[C@H]1O[C@@H](n2cnc3c(N[C@@H]4CCOC4)nc(Cl)nc32)[C@H](O)[C@@H]1O` [Compound 13, [(5-{6-[((3R)oxolan-3-yl)amino]-2-chloropurin-9-yl}(3S,2R,4R,5R)3,4dihydroxyoxolan-2-yl)methoxy]-N-methylcarboxamide], the Ki in assay [1] (setting [3]) was determined as 129 nM. Besides, the Emax in assay [2] was 77%. The matching figures for `CNC(=O)SC[C@H]1O[C@@H](n2cnc3c(N[C@@H]4CCOC4)ncnc32)[C@H](O)[C@@H]1O` [Compound 22, [(5-{6-[((3R)oxolan-3-yl)amino]purin-9-yl}(2S,3S,4R,5R)-3,4&hydroxyoxolan-2-yl)methythio]-N-methylcarboxamide]: 36 nM and 98%. For the compound `CCNC(=O)OC[C@H]1O[C@@H](n2cnc3c(N[C@@H]4CCOC4)ncnc32)[C@H](O)[C@@H]1O` [Compound 25, [(5-{6-[((3R)oxolan-3-yl)amino]purin-9-yl}(3S,2R,4R,5R)-3,4-dihydroxyoxolan-2-yl)methoxy]-N-ethylcarboxamide], in assay [1] (setting [4]), the Ki turned out to be 727 nM. Turning to `CCCNC(=O)OCC1OC(n2cnc3c(N[C@@H]4CCOC4)ncnc32)C(O)C1O` (stereo partly shown) [Compound 26], the Ki in assay [1] (setting [4]) came out at 513 nM. In assay [2], this compound registered an Emax of 73%. As to `CCCCNC(=O)OCC1OC(n2cnc3c(N[C@@H]4CCOC4)ncnc32)C(O)C1O` (stereo partly shown) [Compound 27], the Ki stood at 1610 nM in assay [1] (setting [3]) and 111 nM in assay [1] (setting [4]). Further, the Emax in assay [2] came out at 44%.

With `O=C(NC1CCCC1)OCC1OC(n2cnc3c(N[C@@H]4CCOC4)ncnc32)C(O)C1O` (stereo partly shown) [Compound 28], the Ki in assay [1] (setting [3]) is 32 nM; in assay [1] (setting [4]), 808 nM. As for `O=C(NCc1ccccc1)OC[C@H]1O[C@@H](n2cnc3c(N[C@@H]4CCOC4)ncnc32)[C@H](O)[C@@H]1O` [Compound 29, [(5-{6-[((3R)oxolan-3-yl)amino]purin-9-yl}(3S,2R,4R,5R)-3,4dihydroxyoxolan-2-yl)methoxy]-N-benzylcarboxamide], the Ki in assay [1] (setting [4]) was 478 nM. Take `O=C(NCc1ccc(F)cc1)OCC1OC(n2cnc3c(N[C@@H]4CCOC4)ncnc32)C(O)C1O` (stereo partly shown) [Compound 30]: the Ki in assay [1] (setting [3]) was 2210 nM; in assay [1] (setting [4]), 1730 nM. As to `O=C(NC1CCCCC1)OC[C@H]1O[C@@H](n2cnc3c(N[C@@H]4CCOC4)ncnc32)[C@H](O)[C@@H]1O` [Compound 31, {(5-{6-[((3R)oxolan-3-yl)amino]purin-9-yl}(3S,2R,4R,5R)3,4-dihydroxyoxolan-2-yl)methoxy]-N-cyclohexylcarboxamide], the Ki in assay [1] (setting [4]) amounted to 1090 nM.

`CC(C)NC(=O)OCC1OC(n2cnc3c(N[C@@H]4CCOC4)ncnc32)C(O)C1O` (stereo partly shown) [Compound 32]: the Ki in assay [1] (setting [4]) was found to be 431 nM. In assay [2], this compound gave an Emax of 91%. `O=C(NC1CC1)OCC1OC(n2cnc3c(N[C@@H]4CCOC4)ncnc32)C(O)C1O` (stereo partly shown) [Compound 33]: the Ki in assay [1] (setting [4]) is 1710 nM. Still for that read-out and setting: next, `CN(C)C(=O)OC[C@H]1O[C@@H](n2cnc3c(N[C@@H]4CCOC4)ncnc32)[C@H](O)[C@@H]1O` [Compound 44, {(5-{6-[((3R)oxolan-3-yl)amino]purin-9-yl}(3S,2R,4R,5R)-3,4-dihydroxyoxolan-2-yl)methoxy]-N,N-dimethylcarboxamide]: 1840 nM. For the compound `CNC(=S)OC[C@H]1O[C@@H](n2cnc3c(N[C@@H]4CCOC4)ncnc32)[C@H](O)[C@@H]1O` [Compound 45, 2-{6-[((3R)oxolan-3-yl)amino]purin-9-yl}(4S,2R,3R,5R)-5 {1(methylamino)thioxomethoxylmethyl}oxolane3,4diol], the Ki in assay [1] (setting [4]) turned out to be 141 nM. The compound further yielded an Emax in assay [2] of 77%.

Take `CCNC(=S)OC[C@H]1O[C@@H](n2cnc3c(N[C@@H]4CCOC4)ncnc32)[C@H](O)[C@@H]1O` [Compound 46, 2-{6[((3R)oxolan-3-yl)amino]purin-9-yl}(4S,2R,3R,5R)-5-{[(ethylamino)thioxomethoxy]methyl}oxolane3,4diol]: in assay [1] (setting [4]), the Ki amounted to 135 nM. The Emax in assay [2] was 77%.

Consider `CC(C)NC(=S)OC[C@H]1O[C@@H](n2cnc3c(N[C@@H]4CCOC4)ncnc32)[C@H](O)[C@@H]1O` [Compound 47, 2-{6-[((3R)oxolan-3-yl)amino]purin-9-yl}(4S,2R,3R,5R)-5({[(methylethyl)amino]thioxomethoxy}methyl)oxolane3,4-diol], for which the Ki in assay [1] (setting [4]) is 109 nM. The compound also returned an Emax in assay [2] of 84%. In the same order, the values of `CCCCNC(=S)OCC1OC(n2cnc3c(N[C@@H]4CCOC4)ncnc32)C(O)C1O` (stereo partly shown) [Compound 48] are 926 nM and 70%. In the same order, the values of `CCCNC(=S)OC[C@H]1O[C@@H](n2cnc3c(N[C@@H]4CCOC4)ncnc32)[C@H](O)[C@@H]1O` [Compound 49, 2-{6-[((3R)oxolan-3-yl)amino]purin-9-yl}(4S,2R,3R,5R)-5 {[(propylamino)thioxomethoxy]methyl}oxolane3,4-diol] are 145 nM and 89%. In the case of `OC1C(COC(=S)N2CCCCC2)OC(n2cnc3c(N[C@@H]4CCOC4)ncnc32)C1O` (stereo partly shown) [Compound 50], the results for the Ki in assay [1] (setting [3]) and in assay [1] (setting [4]) were 642 nM and 1950 nM, respectively. The Emax in assay [2] came to 88%. On to `O[C@@H]1[C@H](O)[C@@H](COC(=S)NC2CCCC2)O[C@H]1n1cnc2c(N[C@@H]3CCOC3)ncnc21` [Compound 51, 2-{6-[((3R)oxolan-3-yl)amino]purin-9-yl}(4S,2R,3R,5R)-5{[(cyclopentylamino)thioxomethoxy]methyl}oxolane3,4-diol], for which the Ki in assay [1] (setting [4]) came out at 87 nM.

`O=C(O)CNC(=O)OC[C@H]1O[C@@H](n2cnc3c(N[C@@H]4CCOC4)ncnc32)[C@H](O)[C@@H]1O` [Compound 68, 2-{[(5-{6-[((3R)oxolan-3-yl)amino]purin-9-yl}(3S,2R,4R,5R)-3,4-dihydroxyoxolan-2-yl)methoxy]carbonylamino}acetic acid] yielded an Emax in assay [2] of 76%. As to `O=C(NC[C@H]1O[C@@H](n2cnc3c(N[C@@H]4CCOC4)ncnc32)[C@H](O)[C@@H]1O)NC1CCCC1` [Compound 76, N-[(5-{6[((3R)oxolan-3yl)amino]purin-9-yl}(3S,2R,4R,5R)3,4-dihydroxyoxolan-2-yl)methyl](cyclopentylamino)carboxamide], the Ki in assay [1] (setting [3]) came out at 11600 nM.

Regarding `CCNC(=O)NCC1OC(n2cnc3c(NC4CCOC4)ncnc32)C(O)C1O` [Compound 79, N-[(5-{16[((3R)oxolan-3-yl)amino]purin-9-yI}(3S,2R,4R,5R3,4-dihydroxyoxolan-2-yl)methyl](ethylamino)carboxamide], the inhibition constant Ki in assay [1] (setting [4]) came out at 167 nM.

These data come from US20020037872A1, “N6 heterocyclic 5' modified adenosine derivatives” (CV Therapeutics, Inc., priority 1999, published 2002).
